Here are results for 16 compounds from patent US20230391772A1, “METHODS AND COMPOSITIONS FOR TARGETED PROTEIN DEGRADATION” (Ranok Therapeutics (Hangzhou) Co. Ltd., priority 2020, published 2023).

The target of one experiment is T1, HSP90a protein (Homo sapiens, UniProt P07900).
T1 construct: purchased BPS Bioscience 50298
Put plainly: HSP90α-binding fluorescent polarization (FP) assay, BODIPY-labeled RNK04010 probe. Particulars: FP competition with RNK04010 (BODIPY-labeled), 5 nM, 300 min at 25° C. The method in brief: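 Competitive FP with N-terminal HSP90a; probe at 5 nM final, either BODIPY-labeled triazolone RNK04010 or FITC-geldanamycin. Test compounds as 2.5-fold dilutions from 20 μM to 5.2 nM. Incubated at 25 °C for 300 min (RNK04010) or 120 min (FITC-geldanamycin) before reading polarization.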

In experiment [1] the test system is NCI-H358 human non-small cell lung cancer. Put plainly: NCI-H358 CCK-8 proliferation assay. Type of experiment: cell-based. The following applies: NCI-H358 cells, 72 hr. The method in brief: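 Compounds were tested as a 3-fold series from 20 μM down to 1.02 nM in CCK-8 absorbance assays. The lines used were NCI-H23 and NCI-H358, each with 1 KRAS(G12C) copy, and MIA PaCa-2 with 2 copies. Inhibition was derived relative to DMSO controls, with a no-cell blank subtracted.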
A general note: Tetrazolium dyes change colour on reduction, which living cells bring about.

The structures appear in SMILES notation.

In general, IC50 refers to the concentration at which inhibition is half-maximal. A higher IC50 goes with weaker potency in that assay. By EC50 is commonly meant the concentration giving half of the maximal effect. Higher therefore signals lower potency in that assay.

The compound `CC(=O)N1CCN(c2nc(NCCC(=O)NCc3ccc(-n4c(O)nnc4-c4cc(C(C)C)c(O)cc4O)cc3F)nc3c2CCN(c2cc(O)cc4ccccc24)C3)CC1` [Compound 49, 3-((4-(4-acetylpiperazin-1-yl)-7-(3-hydroxynaphthalen-1-yl)-5,6,7,8-tetrahydropyrido[3,4-d]pyrimidin-2-yl)amino)-N-(4-(3-(2,4-dihydroxy-5-isopropylphenyl)-5-hydroxy-4H-1,2,4-triazol-4-yl)-2-fluorobenzyl)propanamide, trifluoroacetic acid] returned an IC50 on HSP90a protein of 0.1 to 1 µM. Besides, the EC50 in experiment [1] is > 1 µM.
On the same counts, the results for `CCC(=O)N1CCN(c2nc(NCCC(=O)NCc3ccc(-n4c(O)nnc4-c4cc(C(C)C)c(O)cc4O)cc3)nc3c2CCN(c2cc(O)cc4ccccc24)C3)CC1` [Compound 50, N-(4-(3-(2,4-dihydroxy-5-isopropylphenyl)-5-hydroxy-4H-1,2,4-triazol-4-yl)benzyl)-3-((7-(3-hydroxynaphthalen-1-yl)-4-(4-propionylpiperazin-1-yl)-5,6,7,8-tetrahydropyrido[3,4-d]pyrimidin-2-yl)amino)propanamide, trifluoroacetic acid] are 0.1 to 1 µM and > 1 µM.
At HSP90a protein, `CCC(=O)N1CCN(c2nc(NCCC(=O)NCCOc3ccc(-n4c(O)nnc4-c4cc(C(C)C)c(O)cc4O)cc3)nc3c2CCN(c2cc(O)cc4ccccc24)C3)CC1` [Compound 51, N-(2-(4-(3-(2,4-dihydroxy-5-isopropylphenyl)-5-hydroxy-4H-1,2,4-triazol-4-yl)phenoxy)ethyl)-3-((7-(3-hydroxynaphthalen-1-yl)-4-(4-propionylpiperazin-1-yl)-5,6,7,8-tetrahydropyrido[3,4-d]pyrimidin-2-yl)amino)propanamide, trifluoroacetic acid] gave an IC50 of 0.1 to 1 µM. The EC50 in experiment [1] was > 1 µM.
The compound `CCCc1cc(-c2nnc(O)n2-c2ccc(CN3CCN(CC4CCN(C(=O)CCNc5nc6c(c(N7CCN(C(=O)CC)CC7)n5)CCN(c5cc(O)cc7ccccc57)C6)CC4)CC3)cc2)c(O)cc1O` [Compound 52, 1-(4-((4-(4-(3-(2,4-dihydroxy-5-propylphenyl)-5-hydroxy-4H-1,2,4-triazol-4-yl)benzyl)piperazin-1-yl)methyl)piperidin-1-yl)-3-((7-(3-hydroxynaphthalen-1-yl)-4-(4-propionylpiperazin-1-yl)-5,6,7,8-tetrahydropyrido[3,4-d]pyrimidin-2-yl)amino)propan-1-one] showed an IC50 on HSP90a protein of 0.1 to 1 µM. For the same compound, the EC50 in experiment [1] was > 1 µM.
With `CCc1cc(-c2nnc(O)n2-c2ccc(CNC(=O)CCNc3nc4c(c(N5CCN(C(C)=O)CC5)n3)CCN(c3cc(O)cc5ccccc35)C4)c(C(F)(F)F)c2)c(O)cc1O` [Compound 53, 3-((4-(4-acetylpiperazin-1-yl)-7-(3-hydroxynaphthalen-1-yl)-5,6,7,8-tetrahydropyrido[3,4-d]pyrimidin-2-yl)amino)-N-(4-(3-(5-ethyl-2,4-dihydroxyphenyl)-5-hydroxy-4H-1,2,4-triazol-4-yl)-2-(trifluoromethyl)benzyl)propanamide, trifluoroacetic acid], on HSP90a protein, the IC50 is > 1 µM. For the same compound, the EC50 in experiment [1] was > 1 µM.
As to `CC(=O)N1CCN(c2nc(NCCC(=O)N3CCN(Cc4ccc5c(c4)CN(C(=O)c4cc(C(C)C)c(O)cc4O)C5)CC3)nc3c2CCN(c2cc(O)cc4ccccc24)C3)CC1` [Compound 56, 3-((4-(4-acetylpiperazin-1-yl)-7-(3-hydroxynaphthalen-1-yl)-5,6,7,8-tetrahydropyrido[3,4-d]pyrimidin-2-yl)amino)-1-(4-((2-(2,4-dihydroxy-5-isopropylbenzoyl)isoindolin-5-yl)methyl)piperazin-1-yl)propan-1-one, trifluoroacetic acid], the IC50 on HSP90a protein lay in the range of 0.1 to 1 µM. For the same compound, the EC50 in experiment [1] was > 1 µM.
In turn, `CCC(=O)N1CCN(c2nc(NCCC(=O)N3CCN(Cc4ccc5c(c4)CN(C(=O)c4cc(C(C)C)c(O)cc4O)C5)CC3)nc3c2CCN(c2cc(O)cc4ccccc24)C3)CC1` [Compound 57, 1-(4-((2-(2,4-dihydroxy-5-isopropylbenzoyl)isoindolin-5-yl)methyl)piperazin-1-yl)-3-((7-(3-hydroxynaphthalen-1-yl)-4-(4-propionylpiperazin-1-yl)-5,6,7,8-tetrahydropyrido[3,4-d]pyrimidin-2-yl)amino)propan-1-one, trifluoroacetic acid] yielded an IC50 at HSP90a protein of 0.1 to 1 µM. The EC50 in experiment [1] is > 1 µM.
`C=CC(=O)N1CCN(c2nc(NCCC(=O)N3CCN(Cc4ccc5c(c4)CN(C(=O)c4cc(C(C)C)c(O)cc4O)C5)CC3)nc3c2CCN(c2cc(O)cc4ccccc24)C3)CC1` [Compound 58, 1-(4-(2-((3-(4-((2-(2,4-dihydroxy-5-isopropylbenzoyl)isoindolin-5-yl)methyl)piperazin-1-yl)-3-oxopropyl)amino)-7-(3-hydroxynaphthalen-1-yl)-5,6,7,8-tetrahydropyrido[3,4-d]pyrimidin-4-yl)piperazin-1-yl)prop-2-en-1-one] yielded an IC50 at HSP90a protein of 0.1 to 1 µM. Also, in experiment [1], the EC50 is > 1 µM.
`CCC(=O)N1CCN(c2nc(NCCC(=O)N3CCC(CN4CCN(Cc5ccc(-n6c(O)nnc6-c6ccc(O)cc6O)cc5)CC4)CC3)nc3c2CCN(c2cc(O)cc4ccccc24)C3)CC1` [Compound 65, 1-(4-((4-(4-(3-(2,4-dihydroxyphenyl)-5-hydroxy-4H-1,2,4-triazol-4-yl)benzyl)piperazin-1-yl)methyl)piperidin-1-yl)-3-((7-(3-hydroxynaphthalen-1-yl)-4-(4-propionylpiperazin-1-yl)-5,6,7,8-tetrahydropyrido[3,4-d]pyrimidin-2-yl)amino)propan-1-one, trifluoroacetic acid] registered an IC50 at HSP90a protein of 0.1 to 1 µM. For the same compound, the EC50 in experiment [1] is > 1 µM.
Consider `CCC(=O)N1CCN(c2nc(NCCC(=O)N3CCN(Cc4ccc5c(c4)CN(C(=O)c4cc(CC)c(O)cc4O)C5)CC3)nc3c2CCN(c2cc(O)cc4ccccc24)C3)CC1` [Compound 66, 1-(4-((2-(5-ethyl-2,4-dihydroxybenzoyl)isoindolin-5-yl)methyl)piperazin-1-yl)-3-((7-(3-hydroxynaphthalen-1-yl)-4-(4-propionylpiperazin-1-yl)-5,6,7,8-tetrahydropyrido[3,4-d]pyrimidin-2-yl)amino)propan-1-one, trifluoroacetic acid], for which the IC50 at HSP90a protein was > 1 µM. In addition, the EC50 in experiment [1] was > 1 µM.
`CCc1cc(C(=O)N2Cc3ccc(CN4CCN(C(=O)CCNc5nc6c(c(N7CCN(C(C)=O)CC7)n5)CCN(c5cc(O)cc7ccccc57)C6)CC4)cc3C2)c(O)cc1O` [Compound 67, 3-((4-(4-acetylpiperazin-1-yl)-7-(3-hydroxynaphthalen-1-yl)-5,6,7,8-tetrahydropyrido[3,4-d]pyrimidin-2-yl)amino)-1-(4-((2-(5-ethyl-2,4-dihydroxybenzoyl)isoindolin-5-yl)methyl)piperazin-1-yl)propan-1-one, trifluoroacetic acid]: the IC50 on HSP90a protein lay in the range of 0.1 to 1 µM. Besides, the EC50 in experiment [1] was > 1 µM.
As for `C=CC(=O)N1CCN(c2nc(NCCC(=O)N3CCN(Cc4ccc5c(c4)CN(C(=O)c4cc(CC)c(O)cc4O)C5)CC3)nc3c2CCN(c2cc(O)cc4ccccc24)C3)CC1` [Compound 68, 1-(4-(2-((3-(4-((2-(5-ethyl-2,4-dihydroxybenzoyl)isoindolin-5-yl)methyl)piperazin-1-yl)-3-oxopropyl)amino)-7-(3-hydroxynaphthalen-1-yl)-5,6,7,8-tetrahydropyrido[3,4-d]pyrimidin-4-yl)piperazin-1-yl)prop-2-en-1-one, trifluoroacetic acid], the IC50 on HSP90a protein is > 1 µM. The EC50 in experiment [1] is > 1 µM.
For the compound `CC(=O)N1CCN(c2nc(NCCC(=O)NCCOCCOc3ccc(-n4c(O)nnc4-c4cc(C(C)C)c(O)cc4O)cc3)nc3c2CCN(c2cc(O)cc4ccccc24)C3)CC1` [Compound 70, 3-((4-(4-acetylpiperazin-1-yl)-7-(3-hydroxynaphthalen-1-yl)-5,6,7,8-tetrahydropyrido[3,4-d]pyrimidin-2-yl)amino)-N-(2-(2-(4-(3-(2,4-dihydroxy-5-isopropylphenyl)-5-hydroxy-4H-1,2,4-triazol-4-yl)phenoxy)ethoxy)ethyl)propanamide, trifluoroacetic acid], the IC50 on HSP90a protein was 0.1 to 1 µM. Further, in experiment [1], the EC50 is > 1 µM.
The corresponding values for `C=CC(=O)N1CCN(c2nc(NCCC(=O)NCCOCCOc3ccc(-n4c(O)nnc4-c4cc(C(C)C)c(O)cc4O)cc3)nc3c2CCN(c2cc(O)cc4ccccc24)C3)CC1` [Compound 72, trifluoroacetic acid] are < 0.1 µM and > 1 µM.
With `CCC(=O)N1CCN(c2nc(NCCC(=O)NCCOCCOc3ccc(-n4c(O)nnc4-c4cc(C(C)C)c(O)cc4O)cc3)nc3c2CCN(c2cc(O)cc4ccccc24)C3)CC1` [Compound 73, N-(2-(2-(4-(3-(2,4-dihydroxy-5-isopropylphenyl)-5-hydroxy-4H-1,2,4-triazol-4-yl)phenoxy)ethoxy)ethyl)-3-((7-(3-hydroxynaphthalen-1-yl)-4-(4-propionylpiperazin-1-yl)-5,6,7,8-tetrahydropyrido[3,4-d]pyrimidin-2-yl)amino)propanamide, trifluoroacetic acid], the IC50 at HSP90a protein lay in the range of 0.1 to 1 µM. For the same compound, the EC50 in experiment [1] is > 1 µM.
`CCC(=O)N1CCN(c2nc(NCCC(=O)NCCc3ccc(-n4c(O)nnc4-c4cc(C(C)C)c(O)cc4O)cc3)nc3c2CCN(c2cc(O)cc4ccccc24)C3)CC1` [Compound 74, N-(4-(3-(2,4-dihydroxy-5-isopropylphenyl)-5-hydroxy-4H-1,2,4-triazol-4-yl)phenethyl)-3-((7-(3-hydroxynaphthalen-1-yl)-4-(4-propionylpiperazin-1-yl)-5,6,7,8-tetrahydropyrido[3,4-d]pyrimidin-2-yl)amino)propanamide, trifluoroacetic acid]: the IC50 at HSP90a protein fell in the range of 0.1 to 1 µM. Also, the EC50 in experiment [1] is > 1 µM.
